Literature values, collected in patent publication US20200253884A1, “NANOBIOLOGIC COMPOSITIONS FOR PROMOTING TRAINED IMMUNITY” (ICAHN SCHOOL OF MEDICINE AT MOUNT SINAI, priority 2017, published 2020).

Columns and labels:
[1] = system: diffuse large B-cell lymphoma (DLBCL); settings: preliminary results
[2] = system: multiple cancers; settings: in vivo

For “CT-011: humanized IgG1 monoclonal antibody against PD-1”, the “subjects progression-free at the end of the follow-up period” value ([1]; control group 47%) is given as 70% and the subjects alive ([1]; control group 62%) is given as 82%.

For Medi 4736: anti-PD-L1 antibody, the clinical activity [2] is listed as “durable clinical activity” and the safety profile [2] is listed as “acceptable safety profile”.
